According to patent US20230279020A9, “CARM1 INHIBITORS AND USES THEREOF” (Epizyme, Inc., priority 2013, published 2023):
pIC50: −log10 of the molar value.

Target: Human CARM1 (PRMT4) (Homo sapiens (Human), UniProt Q86X55)
Experiment: CARM1 enzyme assay on peptide substrate (3H-SAM Flashplate)
Conditions: Biochemical potencies, classification codes; read-out: Biochem IC50

Chain of Human CARM1 (PRMT4) (Q86X55 other isoform, or with tags, fused parts or gaps isoform Q86X55-1): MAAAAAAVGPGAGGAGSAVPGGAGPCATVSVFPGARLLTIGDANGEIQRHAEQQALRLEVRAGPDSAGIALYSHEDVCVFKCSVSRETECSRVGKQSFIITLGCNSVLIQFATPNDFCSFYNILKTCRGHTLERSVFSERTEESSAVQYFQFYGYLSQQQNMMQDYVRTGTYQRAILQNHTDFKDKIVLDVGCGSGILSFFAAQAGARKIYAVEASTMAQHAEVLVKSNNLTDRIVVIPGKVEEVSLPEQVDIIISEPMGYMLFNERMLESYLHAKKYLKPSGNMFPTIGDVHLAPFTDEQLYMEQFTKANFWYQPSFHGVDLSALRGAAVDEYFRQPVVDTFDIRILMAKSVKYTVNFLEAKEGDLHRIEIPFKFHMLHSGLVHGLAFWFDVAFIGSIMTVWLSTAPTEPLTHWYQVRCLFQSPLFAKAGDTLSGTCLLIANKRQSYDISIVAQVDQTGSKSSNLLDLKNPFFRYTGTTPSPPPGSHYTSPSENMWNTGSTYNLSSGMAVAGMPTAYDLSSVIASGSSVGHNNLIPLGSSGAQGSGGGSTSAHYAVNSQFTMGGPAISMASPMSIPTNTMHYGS

Row | SMILES | pIC50
1 | CNCC(O)COc1cccc(-c2nc(-c3c(C)noc3C)cc(N3CC[C@H](S(C)(=O)=O)C3)n2)c1 (some centres unmarked) [Example 69-1a] | > 7.00
2 | CNC[C@H](O)COc1ccc(Cl)c(-c2nc(-c3c(C)noc3C)cc(N3CC4(CCN(C5CC5)CC4)C3)n2)c1 [Example 69-3] | > 7.00
3 | CNCC(O)COc1cc(Cl)cc(-c2nc(-c3ccn4cnnc4c3)c(C)c(N(C)C3CCOCC3)n2)c1 (centres unmarked) [Example 70-1] | > 7.00
4 | CNCC(O)COc1cccc(-c2nc(NCCCN3CCCC3=O)cc(-c3ccc(C(F)(F)F)nc3)n2)c1 (centres unmarked) [Example 71-1] | > 7.00
5 | CNCC(O)COc1cccc(-c2nc(Nc3cnc(OC)nc3)cc(-c3c(C)noc3C)n2)c1 (centres unmarked) [Example 72-1a] | > 7.00
6 | CNC[C@H](O)COc1ccc(F)c(-c2nc(NC3CCOCC3)c(C)c(-c3c(C)noc3C)n2)c1 [Example 72-3] | > 7.00
7 | CNC[C@H](O)COc1ccc(F)c(-c2nc(NC3CCOC(C)C3)c(C)c(-c3c(C)noc3C)n2)c1 (some centres unmarked) [Example 73-3] | > 7.00
8 | CNC[C@H](O)COc1ccc(Cl)c(-c2nc(-c3c(C)noc3C)c(C)c(N3CCN(C)C(C(F)F)C3)n2)c1 (some centres unmarked) [Example 74-3] | > 7.00
9 | CNCC(O)COc1cc(OC)cc(-c2nc(NC3CCOCC3)c(C)c(-c3c(C)noc3C)n2)c1 (centres unmarked) [Example 75-1a] | > 7.00
10 | CNC[C@H](O)COc1ccc(Cl)c(-c2nc(-c3c(C)noc3C)c(C)c(N3CCC4(CC3)CN(S(C)(=O)=O)C4)n2)c1 [Example 75-3] | > 7.00
11 | CNCC(O)COc1cc(O)cc(-c2nc(NC3CCOCC3)c(C)c(-c3c(C)noc3C)n2)c1 (centres unmarked) [Example 76-1a] | > 7.00
12 | CCOC(=O)N1CCN(c2nc(-c3cccc(OCC(O)CNC)c3)nc(-c3c(C)noc3C)c2C)CC1 (centres unmarked) [Example 77-1a] | > 7.00
13 | CCN1CCC[C@@H]1CNc1nc(-c2cc(OC[C@@H](O)CNC)ccc2Cl)nc(-c2c(C)noc2C)c1C [Example 77-3] | > 7.00
14 | CNCC(O)COc1cccc(-c2nc(NCC3CCOCC3)cc(-c3c(C)noc3C)n2)c1 (centres unmarked) [Example 78-1a] | > 7.00
15 | CNCC(O)COc1cccc(-c2nc(-c3c(C)noc3C)cc(N3CCN(CC(F)F)CC3)n2)c1 (centres unmarked) [Example 79-1a] | > 7.00
16 | CNCC(O)COc1cccc(-c2nc(-c3c(C)noc3C)cc(N3C[C@@H]4C[C@H]3CN4S(C)(=O)=O)n2)c1 (some centres unmarked) [Example 80-1a] | > 7.00
17 | CNC[C@H](O)COc1ccc(Cl)c(-c2nc(NCCC(C)(C)OC)c(C)c(-c3c(C)noc3C)n2)c1 [Example 82-3] | > 7.00
18 | CNCC(O)COc1cccc(-c2nc(-c3c(C)noc3C)c(C)c(N3C[C@@H]4C[C@H]3CN4C)n2)c1 (some centres unmarked) [Example 84-1a] | > 7.00
19 | CNC[C@H](O)COc1ccc(F)c(-c2nc(-c3c(C)noc3C)c(C)c(N3CCC4(CC3)CN(C(=O)OC)C4)n2)c1 [Example 84-3] | > 7.00
20 | CNCC(O)COc1cccc(-c2nc(NC3(C)CCOCC3)cc(-c3c(C)noc3C)n2)c1 (centres unmarked) [Example 85-1a] | > 7.00
21 | CNC[C@H](O)COc1ccc(Cl)c(-c2nc(-c3c(C)noc3C)c(C)c(N3CCC4(CC3)CN(C(=O)OC)C4)n2)c1 [Example 85-3] | > 7.00

Row | SMILES | pIC50
22 | CNC[C@H](O)COc1ccc(Cl)c(-c2nc(-c3c(C)noc3C)c(C)c(N3Cc4cc(F)cnc4C3)n2)c1 [Example 86-3] | > 7.00
23 | CNCC(O)COc1cccc(-c2nc(NCC3CCOCC3)c(C)c(-c3c(C)noc3C)n2)c1 (centres unmarked) [Example 88-1a] | > 7.00
24 | CCOC(=O)N1CCC(Nc2nc(-c3cc(OC[C@H](O)CNC)ccc3Cl)nc(-c3c(C)noc3C)c2C)CC1 [Example 88-3] | > 7.00
25 | CNCC(O)COc1cccc(-c2nc(-c3c(C)noc3C)c(C)c(N(C)C3CCN(C(=O)OC)CC3)n2)c1 (centres unmarked) [Example 89-1a] | > 7.00
26 | CNCC(O)COc1cccc(-c2nc(-c3c(C)noc3C)cc(N3CCN(C(=O)N(C)C)[C@@H](C)C3)n2)c1 (some centres unmarked) [Example 91-1a] | > 7.00
27 | CNC[C@H](O)COc1ccc(F)c(-c2nc(-c3c(C)noc3C)c(C)c(N3Cc4cccnc4C3)n2)c1 [Example 91-3] | > 7.00
28 | CNC[C@H](O)COc1ccc(Cl)c(-c2nc(-c3c(C)noc3C)c(C)c(N3Cc4cccnc4C3)n2)c1 [Example 92-3] | > 7.00
29 | CNCC(O)COc1cccc(-c2nc(-c3c(C)noc3C)cc(N3CCN(C)[C@@H](C)C3)n2)c1 (some centres unmarked) [Example 93-1a] | > 7.00
30 | CCOC(=O)N1CCOC[C@@H]1CNc1nc(-c2cc(OCC(O)CNC)ccc2Cl)nc(-c2c(C)nsc2C)c1C (some centres unmarked) [Example 93-3] | > 7.00
31 | CNCC(O)COc1cccc(-c2nc(-c3c(C)noc3C)cc(N3C[C@@H]4C[C@H]3CN4C(=O)OC)n2)c1 (some centres unmarked) [Example 94-1a] | > 7.00
32 | CNCC(O)COc1cccc(-c2nc(-c3c(C)noc3C)cc(N3C[C@@H]4C[C@H]3CN4C(C)=O)n2)c1 (some centres unmarked) [Example 95-1a] | > 7.00
33 | CNC[C@H](O)COc1ccc(Cl)c(-c2nc(-c3c(C)noc3C)c(C)c(N(C)[C@H]3C[C@@](C)(OC)C3)n2)c1 [Example 95-3] | > 7.00
34 | CNCC(O)COc1cccc(-c2nc(-c3c(C)noc3C)c(F)c(N3CCN(C(=O)OC)CC3)n2)c1 (centres unmarked) [Example 97-1a] | > 7.00
35 | CNCC(O)COc1ccc(Cl)c(-c2nc(NC3CCOCC3)c(C)c(-c3c(C)nsc3C)n2)c1 (centres unmarked) [Example 97-3] | > 7.00
36 | CNCC(O)COc1cccc(-c2nc(-c3c(C)noc3C)cc(N(CCOC)C3CCOCC3)n2)c1 (centres unmarked) [Example 98-1a] | > 7.00
37 | CNC[C@@H](O)COc1ccc(F)c(-c2nc(N[C@H]3CCN(C4CC4)C[C@H]3F)c(C)c(-c3c(C)noc3C)n2)c1 [Example 98-3] | > 7.00
38 | CNC[C@@H](O)COc1ccc(Cl)c(-c2nc(N[C@@H]3CCN(C(=O)OC)[C@@H](C)C3)c(C)c(-c3c(C)noc3C)n2)c1 [Example 101-3] | > 7.00
39 | CNC[C@@H](O)COc1ccc(Cl)c(-c2nc(N[C@H]3CCN(C(=O)OC)[C@H](C)C3)c(C)c(-c3c(C)noc3C)n2)c1 [Example 102-3] | > 7.00
40 | CNCC(O)COc1cccc(-c2nc(-c3c(C)noc3C)cc(N3CCN(CCF)[C@@H](C)C3)n2)c1 (some centres unmarked) [Example 103-1a] | > 7.00
41 | CNC[C@@H](O)COc1ccc(Cl)c(-c2nc(NC3CCN(C(=O)OC)CC3)c(C)c(-c3c(C)noc3C)n2)c1 [Example 104-3] | > 7.00

Now from value to molecule:

Row | pIC50 | SMILES
42 | > 7.00 | CNC[C@@H](O)COc1cccc(-c2nc(N[C@@H]3CCN(C4CC4)C[C@@H]3F)c(Cl)c(-c3c(C)noc3C)n2)c1 [Example 68-3]
43 | > 7.00 | CNCC(O)COc1cccc(-c2nc(-c3c(C)noc3C)cc(N3CCN(C(C)=O)C4(CC4)C3)n2)c1 (centres unmarked) [Example 70-1a]
44 | > 7.00 | CCS(=O)(=O)N1CCC(Nc2nc(-c3cccc(OCC(O)CNC)c3)nc(-c3c(C)nsc3C)c2C)CC1 (centres unmarked) [Example 70-3]
45 | > 7.00 | CNCC(O)COc1cccc(-c2nc(-c3c(C)noc3C)c(C)c(N3CC[C@H](N(C)C(C)=O)C3)n2)c1 (some centres unmarked) [Example 71-1a]
46 | > 7.00 | CCS(=O)(=O)N1CCOC[C@@H]1CNc1nc(-c2cccc(OCC(O)CNC)c2)nc(-c2c(C)nsc2C)c1C (some centres unmarked) [Example 71-3]
47 | > 7.00 | CNCC(O)COc1cc(N)cc(-c2nc(NC3CCOCC3)c(C)c(-c3c(C)noc3C)n2)c1 (centres unmarked) [Example 74-1a]
48 | > 7.00 | CNC[C@H](O)COc1ccc(F)c(-c2nc(-c3c(C)noc3C)c(C)c(N3CCC4(CC3)CN(S(C)(=O)=O)C4)n2)c1 [Example 76-3]
49 | > 7.00 | CNCC(O)COc1cccc(-c2nc(-c3c(C)noc3C)cc(N3CCN(C(=O)OC)CC3)n2)c1 (centres unmarked) [Example 81-1a]
50 | > 7.00 | CNC[C@H](O)COc1ccc(F)c(-c2nc(NCCC(C)(C)OC)c(C)c(-c3c(C)noc3C)n2)c1 [Example 83-3]
51 | > 7.00 | CNCC(O)COc1cccc(-c2nc(-c3c(C)noc3C)c(C)c(N(C)CC3CCOCC3)n2)c1 (centres unmarked) [Example 86-1a]
52 | > 7.00 | CNCC(O)COc1cccc(-c2nc(-c3c(C)noc3C)cc(N(C)CC3CCOCC3)n2)c1 (centres unmarked) [Example 87-1a]
53 | > 7.00 | CNC[C@H](O)COc1ccc(Cl)c(-c2nc(-c3c(C)noc3C)c(C)c(N3Cc4cc(Cl)cnc4C3)n2)c1 [Example 87-3]
54 | > 7.00 | CNC[C@H](O)COc1ccc(Cl)c(-c2nc(NC3CCN(C(=O)OC)CC3)c(C)c(-c3c(C)noc3C)n2)c1 [Example 89-3]
55 | > 7.00 | CNCC(O)COc1cccc(-c2nc(-c3c(C)noc3C)cc(N(C)C3CCN(C(=O)OC)CC3)n2)c1 (centres unmarked) [Example 90-1a]
56 | > 7.00 | CNC[C@H](O)COc1ccc(Cl)c(-c2nc(-c3c(C)noc3C)c(C)c(N3Cc4ccncc4C3)n2)c1 [Example 90-3]
57 | > 7.00 | CNCC(O)COc1cccc(-c2nc(-c3c(C)noc3C)cc(N3CCN(S(C)(=O)=O)[C@@H](C)C3)n2)c1 (some centres unmarked) [Example 92-1a]
58 | > 7.00 | CNC[C@H](O)COc1ccc(Cl)c(-c2nc(N[C@@H]3CCOC3)c(C)c(-c3c(C)noc3C)n2)c1 [Example 94-3]
59 | > 7.00 | CNCC(O)COc1cccc(-c2nc(NC3CCOCC3)c(F)c(-c3c(C)noc3C)n2)c1 (centres unmarked) [Example 96-1a]
60 | > 7.00 | CNC[C@H](O)COc1ccc(Cl)c(-c2nc(NCC3COCCO3)c(C)c(-c3c(C)noc3C)n2)c1 (some centres unmarked) [Example 96-3]
61 | > 7.00 | CNCC(O)COc1cccc(-c2nc(NCCCN3CCCCCC3=O)cc(-c3c(C)noc3C)n2)c1 (centres unmarked) [Example 99-1a]
62 | > 7.00 | CNC[C@H](O)COc1ccc(F)c(-c2nc(N[C@H]3CCN(C4CC4)C[C@H]3F)c(C)c(-c3c(C)noc3C)n2)c1 [Example 99-3]
63 | > 7.00 | CNCC(O)COc1cccc(-c2nc(-c3c(C)noc3C)cc(N3C[C@H]4C[C@@H]3CN4S(C)(=O)=O)n2)c1 (some centres unmarked) [Example 100-1a]
64 | > 7.00 | CNC[C@@H](O)COc1ccc(Cl)c(-c2nc(N[C@@H]3CCOC3)c(C)c(-c3c(C)noc3C)n2)c1 [Example 100-3]
65 | > 7.00 | CNCC(O)COc1cccc(-c2nc(NC3(C)CCOCC3)c(C)c(-c3c(C)noc3C)n2)c1 (centres unmarked) [Example 101-1a]
66 | > 7.00 | CNCC(O)COc1cccc(-c2nc(NC3CCN(C(=O)OC)CC3)cc(-c3c(C)noc3C)n2)c1 (centres unmarked) [Example 102-1a]
67 | > 7.00 | CNC[C@H](O)COc1ccc(Cl)c(-c2nc(N[C@H]3CCN(C(=O)OC)[C@H](C)C3)c(C)c(-c3c(C)noc3C)n2)c1 [Example 103-3]
68 | > 7.00 | CNCC(O)COc1cccc(-c2nc(-c3c(C)noc3C)cc(N3CCN(CC(F)(F)F)[C@@H](C)C3)n2)c1 (some centres unmarked) [Example 104-1a]
